Assay results published in patent publication EP1056700B1, “MEDICINAL USES OF PHENYLALKANOLS AND DERIVATES” (ZingoTX Pty Ltd, priority 1997, dated 1999).
Several values for one entry are separate records, joined by “and”; a condition that tells them apart may be missing. Equal values may be shown once.

Assays:
[1] = test system: rat mesenteric artery; assay: Vasodilation on rat mesenteric small arteries; conditions: relaxation of small arteries (200-300 µm) precontracted with endothelin
Description: Small arteries (200-300 µm in diameter) isolated from rat mesentery were precontracted with endothelin prior to addition of the test substances and tested for relaxation.

[2] = target: T1, Lipoxygenase (LP) (Rattus norvegicus, UniProt P12527); assay: Lipoxygenase assay with cell-free enzyme from RBL 2H3 cells (EIA); type: biochemical; conditions: final concentration of 10 µM
T1 construct: cell-free enzyme (Wong et al, 1991) prepared from rat basophilic leukemia (RBL) 2H3 cell lines; endogenous in cells; host or cells: RBL 2H3 (rat basophilic leukemia), 15,000 g supernatant of cells disrupted by nitrogen cavitation
T1 sequence (P12527 1-673): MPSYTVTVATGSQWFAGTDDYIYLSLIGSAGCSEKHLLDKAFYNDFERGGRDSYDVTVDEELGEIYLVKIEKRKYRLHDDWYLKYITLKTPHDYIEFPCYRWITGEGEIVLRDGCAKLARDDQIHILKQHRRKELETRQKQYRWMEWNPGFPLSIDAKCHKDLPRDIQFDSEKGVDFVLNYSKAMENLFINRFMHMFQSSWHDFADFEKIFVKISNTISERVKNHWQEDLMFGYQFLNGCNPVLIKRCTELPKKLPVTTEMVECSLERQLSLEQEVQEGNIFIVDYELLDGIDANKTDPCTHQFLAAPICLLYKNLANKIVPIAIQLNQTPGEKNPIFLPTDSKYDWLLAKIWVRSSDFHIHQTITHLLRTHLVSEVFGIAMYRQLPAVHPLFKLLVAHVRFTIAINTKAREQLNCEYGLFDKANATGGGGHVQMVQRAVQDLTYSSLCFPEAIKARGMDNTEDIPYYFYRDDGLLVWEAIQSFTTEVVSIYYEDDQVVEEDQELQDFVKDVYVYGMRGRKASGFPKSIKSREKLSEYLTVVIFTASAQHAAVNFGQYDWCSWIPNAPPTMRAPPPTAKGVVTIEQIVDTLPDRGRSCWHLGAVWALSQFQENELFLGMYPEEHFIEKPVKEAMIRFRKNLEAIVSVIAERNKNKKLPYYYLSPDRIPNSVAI
Method: Lipoxygenase (LP) assay was performed with cell-free enzyme (Wong et al, 1991) prepared from rat basophilic leukemia (RBL) 2H3 cell lines. Cells were cultured in EMEM containing 10% fetal calf serum and antibiotic until cells reached confluence. Harvested cells were resuspended in Hepes (10 mM) buffer, pH 7.4, containing 1 mM EDTA at 1 x 10^7 cells/ml, and disrupted by nitrogen cavitation using a Parr bomb at 750 psi for 15 min. The broken cells were centrifuged at 15,000 g for 30 min. Aliquots (0.1 ml) of the supernatant were preincubated with or without drugs in Hepes buffer (10 mM Hepes, pH 7, 1 mM EDTA and 150 mM NaCl) for 5 min, and the reaction was initiated with the addition of 50 µl of CaCl2 (16 mM), 50 µl of ATP (2 mM), 5 µl of PAF (2.5 mg/ml) and 5 µl of AA (2.5 mM). The reaction mixture ([…]) was incubated at room temperature for a further 8 min, then diluted with EIA buffer at 1/200 and 1/2000 dilutions and stored on ice for EIA following the protocol provided with the kit.
Validation of LP enzyme activity was carried out by a UV spectrophotometric method in which the enzyme activity was characterised against various concentrations of Ca^2+, ATP, PAF and AA with the measurement of the formation of diene conjugated products of LP at 235 nm.
All compounds were dissolved in DMSO and assayed at a final concentration of 10 µM. NDGA was used as reference compound. The concentration of DMSO in the assay was maintained at 1.5%.

[3] = Brine shrimp toxicity bioassay; type: in vivo; conditions: Artemia salina (brine shrimp), in vivo; 24 hours, 2% DMSO
Description: (§1) The brine shrimp assay procedure determines LC50 values of active compounds. Activities of a broad range of known active compounds are manifested as toxicity to brine shrimp (Artemia salina Leach). There are many applications of the assay including analysis of toxic substances, anaesthetics, morphine-like substances and cocarcinogenicity of phorbol esters.
(§2) The method for testing solvent toxicity used was basically that reported by J L McLaughlin in Methods of Plant Biochemistry (1991), vol. 6 (K Hostettman, ed.), Academic Press, London, 1-32. DMSO solutions of the substances to be tested were added directly to the vials containing the brine shrimp. As the concentration of DMSO that we wished to use was higher than the recommended 1% v/v testing of the toxicity of the DMSO was therefore necessary. The concentrations of DMSO tested on the shrimp, along with the results from the assay which was done in duplicate are listed below.
(§3) Brine shrimp toxicity was assayed, except for some minor modifications, according to the method of McLaughlin et al as reported in Brine Shrimp: A convenient bioassay for active plant constituents, B N Meyer, N R Ferrigni, J E Putnam, L B Jacobsen, D E Nichols and J L McLaughlin in Planta Medica (1982), 45, 31-34 and Crown gall tumours on potato discs and brine shrimp lethality: Two simple bioassays for higher plant screening and fractionation. J L McLaughlin. Methods of Plant Biochemistry (1991), vol. 6 (K Hostettman, ed.), Academic Press, London, 1-32. Ten shrimp were transferred to each of the vials and the volume adjusted to 4.9 mL. Each dose was performed in triplicate, including the control. In quick succession, the appropriate volume of additional DMSO for each dose, required to achieve a final concentration of 2%, was added before the appropriate volume of test solution. The vials were gently mixed and the time noted. After 24 hours, the number of survivors were counted and % mortality was determined. The test compounds were assayed at concentrations of 100 µM, 25 µM, 5 µM, 1 µM and 0.2 µM (and where appropriate concentrations of 0.04 µM and 0.008 µM).
(§4) The brine shrimp were able to survive without food in the vials over the 24 hour period and were therefore not fed.
(§5) The dose-response curves were constructed using the Sigmaplot computer program and the LC50 value was calculated from the intersection point of the curve and the 50 % mortality line. The LC50 values were expressed in both µM and µg/mL.

[4] = test system: guinea pig atria; assay: Organ bath assay on isolated guinea pig atria (rate and force of contraction); conditions: guinea pig atria
Method: Male guinea pigs, 3-4 weeks old, were killed by rapid cervical dislocation without induced anaesthesia. Then, the guinea pigs were dissected to isolate the atria which were immediately mounted vertically in an organ bath containing Krebs-Henseleit solution oxygenated with carbogen.
One gram tension was applied to the atria and the base line continuously adjusted until it was stable for 20 mins. The rate and force of contraction were recorded using Mac Lab equipment.
Test substances in DMSO were assayed to a maximum concentration of 50 µM at a final concentration of 2.5 % of DMSO.

[5] = target: T2, SR Ca^2+-ATPase (Canis lupus familiaris, UniProt O46674); assay: Sarcoplasmic reticulum Ca^2+-ATPase assay; type: biochemical, dog; conditions: for SR Ca^2+-ATPase Activity: 0 µM = 100, dog cardiac SR; for IC50: read-out: SR Ca^2+-ATPase IC50 = conc. for 50% inhibition
T2 construct: Effect of gingerols and their derivatives on the Ca^2+-ATPase activity of dog cardiac SR; from tissue; host or cells: dog heart (cardiac sarcoplasmic reticulum)
Method: A portion at each concentration (54 µl) was aliquoted into 4 designated wells of the microplate (two of four wells were controls). Each well was mixed with ATP solution (20 mM, 6 µl), except the controls, using an 8 channel pipette. The controls were assayed in the absence of ATP or calcium.
The plate was incubated with the lid on, for 30 min at 37°C, colour reagent (160 µl) was then added and mixed with citrate solution (34%, 30 µl). The plate was developed at room temperature for 30 min then absorbance at 655 nm was read from the microplate reader. The Ca^2+-ATPase activity was quantitated, from a Pi standard curve, as concentration of liberated inorganic phosphate.
Stock solutions (10 mM) of test substance were prepared in DMSO, then series dilutions were made either in DMSO or in 1M HEPES to produce the dose-response concentrations. The maximum concentration of DMSO in the final assay solution was 2.5%.
Each concentration of test substance was assayed in duplicate in the presence and absence of ATP or calcium. Phosphate standards are run on each plate as follows:
Effect of gingerols and their derivatives on the Ca^2+-ATPase activity of dog cardiac SR.

[6] = test system: brine shrimp (Artemia salina Leach); assay: Brine shrimp toxicity bioassay; type: in vivo
Description: as §1, §2, §3, §4, §5

T2 sequence (O46674 whole entry): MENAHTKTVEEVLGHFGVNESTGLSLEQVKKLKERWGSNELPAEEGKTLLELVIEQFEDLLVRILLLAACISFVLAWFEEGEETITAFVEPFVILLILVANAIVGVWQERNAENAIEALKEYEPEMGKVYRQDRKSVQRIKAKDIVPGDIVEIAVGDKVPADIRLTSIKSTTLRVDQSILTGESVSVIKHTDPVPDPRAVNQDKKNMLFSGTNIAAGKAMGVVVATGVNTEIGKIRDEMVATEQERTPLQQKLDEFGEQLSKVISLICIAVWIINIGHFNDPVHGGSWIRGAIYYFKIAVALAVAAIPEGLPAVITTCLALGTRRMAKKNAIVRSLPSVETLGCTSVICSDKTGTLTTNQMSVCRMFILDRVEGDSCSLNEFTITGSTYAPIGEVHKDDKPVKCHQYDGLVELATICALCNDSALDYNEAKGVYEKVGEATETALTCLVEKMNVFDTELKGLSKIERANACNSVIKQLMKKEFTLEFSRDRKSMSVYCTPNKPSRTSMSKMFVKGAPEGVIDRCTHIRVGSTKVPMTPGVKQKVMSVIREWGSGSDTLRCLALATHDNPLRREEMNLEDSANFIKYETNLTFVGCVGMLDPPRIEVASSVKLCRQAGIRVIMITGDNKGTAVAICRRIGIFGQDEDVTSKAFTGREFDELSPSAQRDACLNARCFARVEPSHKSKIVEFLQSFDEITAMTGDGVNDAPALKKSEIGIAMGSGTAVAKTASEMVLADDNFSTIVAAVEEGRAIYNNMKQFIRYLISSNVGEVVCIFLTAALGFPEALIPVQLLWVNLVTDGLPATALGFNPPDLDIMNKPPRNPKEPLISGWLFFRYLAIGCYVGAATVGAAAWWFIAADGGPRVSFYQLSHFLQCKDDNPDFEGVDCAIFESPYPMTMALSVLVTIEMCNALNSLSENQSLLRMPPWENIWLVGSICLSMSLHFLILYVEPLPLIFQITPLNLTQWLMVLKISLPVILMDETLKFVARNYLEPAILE

CCCCCCCCCC(O)CCc1ccc(O)c(OC)c1 (single isomer, unassigned) [enantiomer-2, 1-(4-hydroxy-3-methoxyphenyl)dodecan-3-ol]
EC50 ([1]; Rattus norvegicus): 320 nM

CCCCCCCCCC(O)CCc1ccc(O)c(OC)c1 (single isomer, unassigned; enantiomer-1) [enantiomer-1, enantiomer-1 of 1-(4-hydroxy-3-methoxyphenyl)dodecan-3-ol]
EC50 [1]: 500 nM

CCCCCCCC=CC(=O)C=Cc1ccc(O)c(OC)c1 [1-(4-hydroxy-3-methoxyphenyl)dodecane-1,4-diene-3-one]
activity at 10 µM [2]: 2% | LC50 at 24 h [3]: 5.4 µM and 1.6 µg/mL

CCCCCCCCCC(O)CC(=O)c1ccc(O)c(OC)c1 (stereo not shown) [3-hydroxy-1-(4-hydroxy-3-methoxyphenyl)dodecan-1-one]
FORCE OF CONTRACT^n ↑ increase ([4]; @ 30 (µM)): ↑11% @ 30 | LC50 at 24 h [3]: 10 µM and 3.2 µg/mL | SR Ca^2+-ATPase Activity ([5]; 1 µM): 122 | SR Ca^2+-ATPase Activity ([5]; 5 µM): 111 | SR Ca^2+-ATPase Activity ([5]; 10 µM): 133 | SR Ca^2+-ATPase Activity ([5]; 25 µM): 147 | SR Ca^2+-ATPase Activity ([5]; 50 µM): 158 | SR Ca^2+-ATPase Activity ([5]; 100 µM): 149 | SR Ca^2+-ATPase ↑ increase or stimulation ([5]; @ 10 µM): ↑60% @ 10 | IC50 [5]: 50 µM

CCCCCCCC(O)CC(=O)C=Cc1ccc(O)cc1 (stereo not shown) [5-hydroxy-1-(4-hydroxyphenyl)dodecan-1-ene-3-one]
LC50 at 24 h [3]: 2.6 µM and 0.75 µg/mL

C[S+](C)[O-] [DMSO, dimethyl sulfoxide]
% Deaths ([6]; Conc 1 % v/v): 0% | % Deaths ([6]; Conc 2 % v/v): 0% | % Deaths ([6]; Conc 3 % v/v): 0% | % Deaths ([6]; Conc 4 % v/v): 0% | % Deaths ([6]; Conc 5 % v/v): 9% | % Deaths ([6]; Conc 7 % v/v): 12% | % Deaths ([6]; Conc 9 % v/v): 18% | % Deaths ([6]; Conc 11 % v/v): 57% | % Deaths ([6]; Conc 13 % v/v): 96% | % Deaths ([6]; Conc 15 % v/v): 100% | % Deaths ([6]; Conc 20 % v/v): 100% | % Deaths ([6]; Conc 25 % v/v): 100%

CCCCCC(O)CC(=O)CCc1ccc(O)cc1 (stereo not shown) [[6]-demethoxygingerol, 5-hydroxy-1-(4-hydroxyphenyl)decan-3-one]
FORCE OF CONTRACT^n ([4]; result in words): inactive | HEART RATE ([4]; result in words): inactive | LC50 at 24 h [3]: > 100 µM and > 26 µg/mL | IC50 [5]: > 100 µM
